From patent publication EP1247803A2, “Indolinone compounds suitable for modulation of protein kinases” (Sugen, Inc., priority 1996, dated 1998) come the findings set out here.

For this assay, the target named is T1, EGFR (Homo sapiens, UniProt P00533).
T1 construct: Add 7 ug A431 cell lysate per well (EGFR source); endogenous in cells; host or cells: A431
T1 sequence (P00533 25-1210): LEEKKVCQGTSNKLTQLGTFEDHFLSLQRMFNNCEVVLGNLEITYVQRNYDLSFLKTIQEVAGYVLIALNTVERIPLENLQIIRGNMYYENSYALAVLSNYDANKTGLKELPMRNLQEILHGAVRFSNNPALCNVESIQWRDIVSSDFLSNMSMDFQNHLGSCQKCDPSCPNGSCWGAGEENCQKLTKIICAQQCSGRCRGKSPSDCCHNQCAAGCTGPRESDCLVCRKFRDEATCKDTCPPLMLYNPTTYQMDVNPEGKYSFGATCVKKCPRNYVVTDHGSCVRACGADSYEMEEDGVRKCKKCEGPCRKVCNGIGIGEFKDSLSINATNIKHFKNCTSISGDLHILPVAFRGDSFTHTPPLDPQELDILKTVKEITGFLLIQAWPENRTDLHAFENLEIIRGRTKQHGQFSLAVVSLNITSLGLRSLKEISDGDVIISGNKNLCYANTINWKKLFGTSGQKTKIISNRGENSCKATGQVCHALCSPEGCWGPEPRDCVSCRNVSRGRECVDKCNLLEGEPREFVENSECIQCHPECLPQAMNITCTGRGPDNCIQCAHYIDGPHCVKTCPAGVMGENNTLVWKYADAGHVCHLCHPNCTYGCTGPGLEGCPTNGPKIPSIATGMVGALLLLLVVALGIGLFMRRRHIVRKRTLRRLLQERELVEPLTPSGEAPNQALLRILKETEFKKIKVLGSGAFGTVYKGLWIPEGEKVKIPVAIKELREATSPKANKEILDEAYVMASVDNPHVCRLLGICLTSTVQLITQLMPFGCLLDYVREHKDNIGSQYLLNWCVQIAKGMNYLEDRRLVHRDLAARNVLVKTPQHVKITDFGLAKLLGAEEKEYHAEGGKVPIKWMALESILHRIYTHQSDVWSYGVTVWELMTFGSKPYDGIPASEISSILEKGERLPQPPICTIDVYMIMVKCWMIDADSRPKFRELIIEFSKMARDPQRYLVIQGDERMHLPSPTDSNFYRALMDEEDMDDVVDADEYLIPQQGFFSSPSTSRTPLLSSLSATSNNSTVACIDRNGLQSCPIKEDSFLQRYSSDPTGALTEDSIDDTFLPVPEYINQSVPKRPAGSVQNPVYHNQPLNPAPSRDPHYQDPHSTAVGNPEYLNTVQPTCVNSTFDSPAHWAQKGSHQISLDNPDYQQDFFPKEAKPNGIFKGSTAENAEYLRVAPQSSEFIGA
The assay is described as follows: EGFR ELISA assay (in vitro kinase activity, EGFR captured from A431 cell lysate). The assay is classed as biochemical. Also on record: concentration or dose not given beside the values. Summed up:
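EGFR from A431 lysate was captured on plates coated with anti-EGFR antibody. Compounds were added 30 min before a 5 min phosphorylation with 3 µM ATP/5 mM MnCl2, which was stopped with 20 mM EDTA. Phosphotyrosine was detected with rabbit anti-phosphotyrosine, then a peroxidase-conjugated secondary and ABTS/H2O2, read at 410 nm.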
Background: In an ELISA, binding on a coated surface is turned into a signal by an enzyme label.
For the compound `COc1cccc(OC)c1C=C1C(=O)Nc2ccc(CCCl)cc21` [10728/G03], the “Biochem EGFR %Inhibition” value was -2.0%.
Next, `CNS(=O)(=O)c1ccc2c(c1)C(=Cc1c(OC)ccc3ccccc13)C(=O)N2` [10729/D02]: -5.7%; `CNS(=O)(=O)c1ccc2c(c1)C(=Cc1c(F)cccc1C(F)(F)F)C(=O)N2` [10728/D09]: -2.9%.
Turning to `COc1ccc(OC)c(C=C2C(=O)Nc3ccc(S(=O)(=O)Nc4ccc(C(F)(F)F)cc4)cc32)c1` [10728/E02], the “Biochem EGFR %Inhibition” value is recorded as 7.4%.
As for `CNS(=O)(=O)c1ccc2c(c1)C(=Cc1cc(OC)c3c(c1)OCO3)C(=O)N2` [10728/D11], the “Biochem EGFR %Inhibition” value came to 22.1%.
Next, `COc1cc(Br)c(O)c(C=C2C(=O)Nc3ccc(I)cc32)c1` [10718/B03]: -0.2%; `O=C1Nc2ccc(S(=O)(=O)Nc3ccc(C(F)(F)F)cc3)cc2C1=Cc1ccccn1` [10729/E07]: 26.7%.
